One assay deals with BT-20 cells. The experiment in a line: Hoechst 33258 assay and live cell morphology, BT-20. The class given is cell-based. How it is done: FIGS. 8A-8B: Representative images of morphological changes in BT-20 TNBC cells incubated with 0, 1, or 3 μM of TPH104 (FIG. 8A). The images were taken using an incuCyte live cell imaging instrument.
To detect DNA fragmentation following apoptotic cell death, the Hoechst 33258 assay was performed. Briefly, TNBC cells were seeded in a 6-well plate at a density of 10,000 cells/well over 18-mm cover slips and incubated for 24 h. Following incubation, TPH104 (1, 2, or 5 μM), or vehicle were added for an additional 12 h. Subsequently, Hoechst 33258 (Sigma Aldrich, USA) was added to the cells at a concentration of 0.5 mg/mL and incubated for 30 minutes at 37° C. The cells were then washed 3× with phosphate buffered saline (PBS). Subsequently, the cover slips were mounted on a microscope glass/slide and allowed to dry for at least 2 h. Stained cells from each cover slip were captured from randomly selected fields under a fluorescent microscope (EVOS-FLC cell imaging system, Thermofisher scientific) to qualitatively determine the proportion of viable and apoptotic cells based on their relative fluorescence and nuclear fragmentation as previously described.

Another assay has as its system MDA-MB231 cells. As to the kind of experiment: Scratch/wound healing assay. It counts as cell-based. The method, then:
MDA-MB231 cells were seeded in a 6 well-plate (10-20,000 cells/well) and incubated at 37° C. until they reached 60-80% confluence and formed a complete monolayer, as previously reported. Subsequently, a wound was created by scratching the monolayer with a 10 μl sterile pipette tip. The floating cells were washed away with sterile PBS, making the wound area clear and completely empty. Immediately following monolayer scratching, TPH104 (0.5, 1, 2, 5 or 10 μM) or vehicle were added to the cell culture media (2 ml total in each well) and incubated at 37° C. for 36 h. The wound closure was monitored over time by taking pictures after 0 h, 12 h, 24 h, and 36 h of incubation using an EVOS-FLC microscope. Image J software NIH, Bethesda, MD, USA) was used to determine the areas of the wound at different time points as previously reported.

SMILES strings stand for the structures.

Consider `COc1ccc(O)c(/C=N/Nc2ncnc3scc(-c4ccc(C)cc4)c23)c1` [TPH104], for which, in the assay with BT-20 cells (1 μM and 3 μM), the cellular shrinkage entry is on record as “did not induce cellular shrinkage” and the “rupture of the cellular membrane” value is listed as “did induce rupture”. Moreover, the nuclear condensation result in the assay on BT-20 cells (1, 2, and 5 μM, 12 h) is “did not show nuclear condensation”. The molecule also registered a death of cells in the assay on MDA-MB231 cells (10 μM, after 12 h of incubation) of 70%. Also, in the assay with MDA-MB231 cells (0.5, 1, 2, 5, and 10 μM), the mobility and migration entry is listed as “significantly decreased”. In the assay on MDA-MB231 cells (1, 2, 5, and 10 μM), the wound closure result is reported as “significantly reduced”.

For the origin of these results see patent US12390467B2, “Necroptosis inducers or autophagy inhibitors or a combination thereof” (The University of Toledo, priority 2018, dated 2025).
